# Square brackets hold non-standard residues; d marks the D form. Peptide text beside a SMILES is read from it.
# Assay: RP-HPLC temperature profiling (hydrophobicity and self-association/dimerization parameter PA)
# Assay type: physicochemical
# Conditions: for tR (min) 5° C.: RP-HPLC retention time at 5° C. during temperature profiling (measure of hydrophobicity); for tR (min) 80° C.: RP-HPLC retention time at 80° C. during temperature profiling; for tR (min) Max: maximal RP-HPLC retention time during temperature profiling 5-80° C.; for PA (min) association parameter: maximal retention time difference relative to control peptide C within 5-80° C.; for ΔtR (X-NVL) (min) 5° C.: retention time difference relative to native peptide V681 (NVL) at 5° C.; for ΔtR (X-NVL) (min) 5° C. / ΔtR (X-NVL) (min) 80° C.: relative hydrophobicity; for ΔtR (X-NVL) (min) 80° C.: retention time difference relative to native peptide V681 (NVL) at 80° C.
# Summary of the method: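 RP-HPLC retention times recorded over temperature profiling from 5°C to 80°C, with retention relative to native V681 at each limit used as hydrophobicity. Self-association parameter PA defined as the maximal change in retention time from 5°C, after subtracting that of monomeric random-coil control peptide C.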
Structure (SMILES),tR (min) 5° C. [min],tR (min) 80° C. [min],"decrease in hydrophobicity relative to NVL (V681) (RP-HPLC retention time difference at 80° C., non-polar face substitutions) [min]",tR (min) Max [min],PA (min) association parameter [min],ΔtR (X-NVL) (min) 5° C. (non-polar face substitutions) [min],ΔtR (X-NVL) (min) 80° C. (non-polar face substitutions) [min]
CC[C@H](C)[C@H](NC(=O)[C@H](C)NC(=O)[C@H](CCCCN)NC(=O)[C@H](CC(C)C)NC(=O)[C@H](C)NC(=O)[C@@H](NC(=O)[C@H](Cc1c[nH]cn1)NC(=O)[C@H](CC(C)C)NC(=O)[C@@H](NC(=O)[C@@H](NC(=O)[C@H](CCCCN)NC(=O)[C@H](C)NC(=O)[C@H](C)NC(=O)[C@H](CO)NC(=O)[C@H](CCCCN)NC(=O)[C@H](Cc1ccccc1)NC(=O)[C@@H](NC(=O)[C@H](CCCCN)NC(=O)[C@H](CC(C)C)NC(=O)[C@H](Cc1ccccc1)NC(=O)[C@H](CO)NC(=O)[C@H](CCCCN)NC(=O)[C@H](Cc1c[nH]c2ccccc12)NC(=O)[C@H](CCCCN)NC(C)=O)[C@@H](C)O)[C@@H](C)O)C(C)C)[C@@H](C)O)C(=O)N[C@@H](CO)C(=O)N[C@@H](CO)C(N)=O [NAL],43.94,41.38,-4.45,44.88,2.59,-4.16,-4.45
CC[C@H](C)[C@H](NC(=O)[C@H](C)NC(=O)[C@H](CCCCN)NC(=O)[C@H](CC(C)C)NC(=O)[C@H](C)NC(=O)[C@@H](NC(=O)[C@H](Cc1c[nH]cn1)NC(=O)[C@H](CC(C)C)NC(=O)[C@@H](NC(=O)[C@@H](NC(=O)[C@H](CCCCN)NC(=O)[C@@H](CCCCN)NC(=O)[C@H](C)NC(=O)[C@H](CO)NC(=O)[C@H](CCCCN)NC(=O)[C@H](Cc1ccccc1)NC(=O)[C@@H](NC(=O)[C@H](CCCCN)NC(=O)[C@H](CC(C)C)NC(=O)[C@H](Cc1ccccc1)NC(=O)[C@H](CO)NC(=O)[C@H](CCCCN)NC(=O)[C@H](Cc1c[nH]c2ccccc12)NC(=O)[C@H](CCCCN)NC(C)=O)[C@@H](C)O)[C@@H](C)O)C(C)C)[C@@H](C)O)C(=O)N[C@@H](CO)C(=O)N[C@@H](CO)C(N)=O [NKD],34.05,30.96,–,34.05,1.10,-14.05,-14.87
CC[C@H](C)[C@H](NC(=O)[C@H](C)NC(=O)[C@H](CCCCN)NC(=O)[C@H](CC(C)C)NC(=O)[C@H](C)NC(=O)[C@@H](NC(=O)[C@H](Cc1c[nH]cn1)NC(=O)[C@H](CC(C)C)NC(=O)[C@@H](NC(=O)[C@@H](NC(=O)[C@H](CCCCN)NC(=O)[C@@H](CO)NC(=O)[C@H](C)NC(=O)[C@H](CO)NC(=O)[C@H](CCCCN)NC(=O)[C@H](Cc1ccccc1)NC(=O)[C@@H](NC(=O)[C@H](CCCCN)NC(=O)[C@H](CC(C)C)NC(=O)[C@H](Cc1ccccc1)NC(=O)[C@H](CO)NC(=O)[C@H](CCCCN)NC(=O)[C@H](Cc1c[nH]c2ccccc12)NC(=O)[C@H](CCCCN)NC(C)=O)[C@@H](C)O)[C@@H](C)O)C(C)C)[C@@H](C)O)C(=O)N[C@@H](CO)C(=O)N[C@@H](CO)C(N)=O [NSD] (Ac-KWKSFLKTFKSA[dS]KTVLHTALKAISS-NH2),37.02,34.08,–,37.12,1.46,-11.08,-11.75
CC[C@H](C)[C@H](NC(=O)[C@H](C)NC(=O)[C@H](CCCCN)NC(=O)[C@H](CC(C)C)NC(=O)[C@H](C)NC(=O)[C@@H](NC(=O)[C@H](Cc1c[nH]cn1)NC(=O)[C@H](CC(C)C)NC(=O)[C@@H](NC(=O)[C@@H](NC(=O)[C@H](CCCCN)NC(=O)[C@H](NC(=O)[C@H](C)NC(=O)[C@H](CO)NC(=O)[C@H](CCCCN)NC(=O)[C@H](Cc1ccccc1)NC(=O)[C@@H](NC(=O)[C@H](CCCCN)NC(=O)[C@H](CC(C)C)NC(=O)[C@H](Cc1ccccc1)NC(=O)[C@H](CO)NC(=O)[C@H](CCCCN)NC(=O)[C@H](Cc1c[nH]c2ccccc12)NC(=O)[C@H](CCCCN)NC(C)=O)[C@@H](C)O)C(C)C)[C@@H](C)O)C(C)C)[C@@H](C)O)C(=O)N[C@@H](CO)C(=O)N[C@@H](CO)C(N)=O [NVD],42.55,40.15,–,43.43,2.63,-5.55,-5.68

# Source: patent US8252737B2, “Antimicrobial peptides and methods of use” (priority 2004, dated 2012)
